Results as given in the Biogen ADME set (Fang et al. 2023).
Converted amounts (≈) assume the structure as drawn.

Conditions: for aqueous solubility: pH 6.8

Compound	MDR1-MDCK efflux ratio	intrinsic clearance, human liver microsomes [mL/min/kg]	intrinsic clearance, rat liver microsomes [mL/min/kg]	aqueous solubility [µg/mL]
CCCNC(=O)c1ccnc(N(C)C)c1	0.616	39	83.5	38.1 (≈ 184 µM)
CN1C(=O)[C@H](Cc2ccccc2)N[C@@H]1C(C)(C)C	0.771	53.9	747	30.3 (≈ 123 µM)
O=C(c1ccccc1F)N1CCC[C@@H]1Cn1nnn(-c2cccs2)c1=O	0.769	62.4	1240	33 (≈ 88.4 µM)
O=C(O)c1cc(/N=N/c2ccc(S(=O)(=O)Nc3ccccn3)cc2)ccc1O	0.459	≤ 4.74	50.5	54.5 (≈ 137 µM)
CN(C)C(=O)CN1CCN(C(=O)c2ccc3ccccc3c2O)CC1	2.35	≤ 4.74	≤ 10.7	43.9 (≈ 129 µM)
O=C(CCOc1ccccc1)N1CCCC(c2n[nH]cc2-c2ccc(Cl)cc2)C1 (stereo not given)	4.26	–	–	0.8 (≈ 1.95 µM)
c1ccc(C(c2ccccc2)c2noc(Cn3cnc(C4CC4)n3)n2)cc1	1.14	38	1510	26.3 (≈ 73.6 µM)
COc1ccc(NC(C)=O)cc1NC(=O)CN(Cc1ccccc1)C(C)C	2.21	1340	4200	–
Cc1cc(NC(=O)C2CCOCC2)sn1	0.91	≤ 4.74	≤ 10.7	56.5 (≈ 250 µM)
c1ccc(CO[C@@H]2CCC[C@H]2n2cc(-c3nccs3)nn2)cc1	0.658	63.2	3020	15.7 (≈ 48 µM)
CN(CC1(O)CCCC1)c1ncccn1	1.27	≤ 4.74	132	32.6 (≈ 157 µM)
c1cc2cc[nH]c2c(CC2CN(C3CCCC3)C2)n1	3.21	≤ 4.74	80.5	18.6 (≈ 72.7 µM)
Cc1nc(-c2ccccc2)ccc1C(=O)N1CCCS1(=O)=O	0.766	≤ 4.74	96	78.5 (≈ 248 µM)
Nc1ccc2c(ccn2CC(=O)N2CCOCC2)c1	–	≤ 4.74	≤ 10.7	50.5 (≈ 195 µM)
CCc1c(N)cnn1-c1ccccc1C	0.677	8.11	165	37.1 (≈ 185 µM)
Cc1nc(CC(=O)NCc2ccccc2)cs1	0.79	≤ 4.74	39	26 (≈ 106 µM)
CC(C)(C)N1CCCN(C(=O)CNc2ccc(C#N)cc2)CC1	0.887	≤ 4.74	65.3	50 (≈ 159 µM)
CC(C)Oc1ccc(CCNC(=O)N2CCC[C@H]2C(=O)N2CCCCC2)cc1	50.9	19.7	492	–
C=CCNc1ncc(-c2cnccn2)c(C2CC2)n1	0.531	13	734	–
